Measured values published in ChEMBL document CHEMBL1806478, “Synthesis of novel inhibitors of β-glucuronidase based on benzothiazole skeleton and study of their binding affinity by molecular docking” (Bioorg Med Chem, 2011).
Activity calls are given as the source filed them. The rule behind the calls is not given here.

Tests used:
[1] = target: T1, Beta-glucuronidase (Bos taurus) (UniProt A3KMY8); test: Inhibition of bovine liver beta glucuronidase assessed as p-nitrophenol formation at 0.2 mM after 30 mins by spectrophotometric method
T1 sequence (whole entry): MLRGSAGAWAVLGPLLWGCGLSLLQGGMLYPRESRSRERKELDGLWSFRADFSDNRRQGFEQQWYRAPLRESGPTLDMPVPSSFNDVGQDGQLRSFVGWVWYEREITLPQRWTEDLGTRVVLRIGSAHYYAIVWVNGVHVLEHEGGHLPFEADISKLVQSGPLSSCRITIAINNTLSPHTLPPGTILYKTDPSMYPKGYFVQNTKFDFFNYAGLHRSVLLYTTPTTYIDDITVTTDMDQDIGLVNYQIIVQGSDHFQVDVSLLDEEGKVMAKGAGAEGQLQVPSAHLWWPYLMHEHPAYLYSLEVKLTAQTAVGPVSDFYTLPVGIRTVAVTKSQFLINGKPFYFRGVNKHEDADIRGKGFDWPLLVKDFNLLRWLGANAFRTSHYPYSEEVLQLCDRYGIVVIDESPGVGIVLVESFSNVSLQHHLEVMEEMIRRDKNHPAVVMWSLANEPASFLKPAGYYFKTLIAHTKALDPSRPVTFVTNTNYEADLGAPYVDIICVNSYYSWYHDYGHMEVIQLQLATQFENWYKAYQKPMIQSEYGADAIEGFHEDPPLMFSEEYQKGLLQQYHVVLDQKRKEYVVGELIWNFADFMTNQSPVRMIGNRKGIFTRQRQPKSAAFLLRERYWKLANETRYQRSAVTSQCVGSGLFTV

[2] = Inhibition of alpha-chymotrypsin
[3] = Inhibition of urease
[4] = target: T1, Beta-glucuronidase (Bos taurus); test: (§1) Inhibition of bovine liver beta glucuronidase assessed as p-nitrophenol formation after 30 mins by spectrophotometric method
Beta-glucuronidase = target: T2, Beta-glucuronidase (Bos taurus, UniProt A3KMY8); test: as §1
T2 sequence (A3KMY8 whole entry): T1 sequence (whole entry)

3T3-L1 = test: Cytotoxic activity against mouse 3T3L1 cells assessed as cell viability at 1 to 20 ug/ml after 48 hrs by MTT assay; assay type: cell-based; details: 3t3-l1, 48 h
CC-1 = test: Cytotoxic activity against Wistar rat CC1 cells assessed as cell viability at 1 to 20 ug/ml after 48 hrs by MTT assay; assay type: cell-based; details: cc-1, 48 h
[5] = target: T1, Beta-glucuronidase (Bos taurus); test: Ratio of D-saccharic acid 1,4-lactone IC50 to compound IC50 for bovine liver beta glucuronidase

Compound	inhibition [1]	inhibition [2]	inhibition [3]	inhibition [4]	IC50 (Beta-glucuronidase)	Activity (3T3-L1)	Activity (CC-1)	Ratio IC50 [5]
Clc1cccc(-c2nc3ccccc3s2)c1	< 50%	inactive	inactive	–	–	–	–	–
c1cncc(-c2nc3ccccc3s2)c1	–	inactive	inactive	inactive	–	–	–	–
Oc1cccc(-c2nc3ccccc3s2)c1O	< 50%	inactive	inactive	–	–	–	–	–
CCOc1cccc(-c2nc3ccccc3s2)c1O	–	inactive	inactive	inactive	–	–	–	–
c1csc(-c2nc3ccccc3s2)c1	< 50%	inactive	inactive	–	–	–	–	–
COc1cccc(-c2nc3ccccc3s2)c1O	< 50%	inactive	inactive	–	–	–	–	–
Oc1ccc(-c2nc3ccccc3s2)cc1	–	inactive	inactive	–	8.9 µM	Non-toxic	Non-toxic	–
Oc1ccccc1-c1nc2ccccc2s1	–	inactive	inactive	–	4.23 µM	Non-toxic	Non-toxic	12
Brc1ccc(-c2nc3ccccc3s2)cc1	–	inactive	inactive	inactive	–	–	–	–
c1ccc2sc(-c3ccncc3)nc2c1	< 50%	inactive	inactive	–	–	–	–	–
Oc1ccc(O)c(-c2nc3ccccc3s2)c1	–	inactive	inactive	–	8.9 µM	Non-toxic	Non-toxic	–
Cc1ccc(-c2nc3ccccc3s2)cc1	< 50%	inactive	inactive	–	–	–	–	–
Oc1ccc(-c2nc3ccccc3s2)c(O)c1	–	inactive	inactive	–	19.4 µM	Non-toxic	Non-toxic	–
Fc1ccccc1-c1nc2ccccc2s1	–	inactive	inactive	inactive	–	–	–	–
Cc1ccccc1-c1nc2ccccc2s1	< 50%	inactive	inactive	–	–	–	–	–
COc1ccc(-c2nc3ccccc3s2)cc1OC	–	inactive	inactive	inactive	–	–	–	–
CCOc1ccc(-c2nc3ccccc3s2)cc1	–	inactive	inactive	inactive	–	–	–	–
Oc1cccc(-c2nc3ccccc3s2)c1	–	inactive	inactive	–	36.1 µM	Non-toxic	Non-toxic	–
Clc1ccc(-c2nc3ccccc3s2)cc1Cl	< 50%	inactive	inactive	–	–	–	–	–
Clc1ccc(-c2nc3ccccc3s2)cc1	< 50%	inactive	inactive	–	–	–	–	–
c1ccc2cc(-c3nc4ccccc4s3)ccc2c1	< 50%	inactive	inactive	–	–	–	–	–
Oc1ccc(Cl)cc1-c1nc2ccccc2s1	< 50%	inactive	inactive	–	–	–	–	–
Clc1ccc(-c2nc3ccccc3s2)c(Cl)c1	–	inactive	inactive	inactive	–	–	–	–
Oc1cc(O)c(-c2nc3ccccc3s2)cc1O	–	inactive	inactive	–	2.26 µM	Non-toxic	Non-toxic	24
CN(C)c1ccc(-c2nc3ccccc3s2)cc1	–	inactive	inactive	inactive	–	–	–	–
Oc1ccc(-c2nc3ccccc3s2)cc1O	–	inactive	inactive	–	94 µM	Non-toxic	Non-toxic	–
